According to patent US6521655B1, “Substituted imidazoles useful in the treatment of inflammatory diseases” (Ortho-McNeil Pharmaceutical, Inc., priority 1997, dated 2003):

What was measured:
[1] = test system: TNF-α; experiment: in vitro whole cell assay, LPS-stimulated PBMC, TNF-α ELISA; type: cell-based; settings: LPS-stimulated human PBMC
Description: Aside from the enzyme assay, many of the compounds of the invention were tested in an in vitro whole cell assay using peripheral blood mononuclear cells (“PBMC”) which were obtained from human blood as follows. Freshly obtained venous blood was anticoagulated with heparin, diluted with an equal volume of phosphate buffered saline (“PBS”) and placed in a sterile tube or other container. Aliquots (30 mL) of this mixture were transferred to centrifuge tubes which were underlaid with Ficoll-Hypaque (15 mL). The prepared tubes were centrifuged at 400×g without braking for 30 min at room temperature. Approximately ½ to ⅔ of the platelet layer above the mononuclear cell band was removed with a pipette. The majority of the mononuclear cell layer was carefully removed using a pipette and these PBMCs were diluted with PBS and spun at 600×g for 15 min. […] A small volume of the suspension was removed for counting on a hemocytometer and the remaining preparation was centrifuged at 200×g for 15 min at room temperature. The recovered pelleted PMBC were resuspended in RPMI/1% FCS to a concentration of 1.67×10^6/mL. To run the assay, the PBMC suspension (180 μL) was transferred to duplicate wells of a 96-well flat-bottom microtiter plate and incubated for 1 h at 37° C. […] A solution (10 μL) of LPS in RPMI/1% FCS (200 ng/mL) was added and the wells were incubated overnight at 37° C. The supernate ([…]) was removed from each well and diluted with RPMI/1% FCS (400 μL). The samples were analyzed for TNF-α using a commercial ELISA kit (Genzyme).

[2] = target: T1, purified recombinant p38 (Homo sapiens, UniProt Q16539); experiment: p38 in vitro enzyme assay (33P-ATP, myelin basic protein substrate); type: biochemical; settings: for IC50: read-out: p-38 IC50
T1 construct: 6xHis; made in house; host or cells: E. coli
Description: As discussed previously, agents which inhibit the activity of the enzyme p38, inhibit the production of the inflammatory cytokines TNF-α, and IL-1β. Compounds of the invention were measured for their ability to inhibit the activity of p38 by the following in vitro assay.
A solution (38 μL) of purified recombinant p38 (where the amount of enzyme was determined empirically considering the linear range of the assay and the acceptable signal to noise ratio; 6×His-p38 expressed in E.coli), myelin basic protein substrate (also determined empirically), a buffer of pH 7.5 (Hepes:25 mM, MgCl2:10 mM, MnCl2:10 mM) were added to 92 wells of a 96-well round bottom polypropylene plate. The remaining wells were used for control (“CTRL”) and background (“BKG”). The CTRL was prepared with the enzyme, substrate buffer and 2% DMSO, and the BKG was prepared with substrate buffer and 2% DMSO. A solution (12 μL) of the test compound in DMSO (compounds were diluted to 125 μM in 10% DMSO/H2O and assayed at 25 μM where the final DMSO concentration was 2%) was added to the testing wells. The ATP/^33P-ATP solution (10 μL: containing 50 μM unlabeled ATP and 1 μCi ^33P-ATP) was added to all wells and the completed plates were mixed and incubated at 30° C. for 30 min. Ice-cold 50% TCA/10 mM sodium phosphate (60 μL) were added to each well and the plates were kept on ice for 15 min. The contents of each well were transferred to the wells of a 96-well filterplate (Millipore, MultiScreen-DP) and the filterplate was placed on a vacuum manifold, fitted with a waste collection tray. The wells were washed five times with 10% TCA/10 mM sodium phosphate (200 μL) under vacuum. MicroScint-20 scintillant was added, the plates were sealed using Topseal-S sheets and counted in a Packard TopCount scintillation counter using a ^33P liquid program with color quench correction, where the output is in color quench-corrected cpm. The % inhibition of the test compounds was calculated by the following formula: % inhibition=[1−(sample -BKG)/(CTRL-BKG)]×100.
Although compounds were initially tested at […], if warranted the compounds were tested at 4-fold increments above and below that concentration. In addition, IC50s were calculated for some compounds using the Deltagraph 4-parameter curve fitting program.

[3] = test system: TNF-α; experiment: in vivo LPS induced TNF-α production, mice; parameters: species or system Mice (BALB/cJ females); settings: 25 mg/kg, oral, LPS 1 mg/kg i.p.
Description: (§1) Thirty minutes after dosing, the animals were injected intraperitoneally with LPS at 1 mg/kg and returned to their cages for 1 h. Animals were anesthetized by CO2, exsanguinated by cardiac puncture and whole blood collected (0.1-0.7 mL). The blood was allowed to clot and serum was transferred to a centrifuge tube. This sample was centrifuged, serum was collected, aliquoted and frozen at −80° C. Samples were tested by commercial ELISAs for TNF-α (Endogen for mouse TNF-α and Biosource for rat TNF-α).

[4] = test system: IL-1β; experiment: in vitro IL-1β assay, plastic-adherent cells from PBMC, LPS stimulation, ELISA; type: cell-based; settings: Homo sapiens, read-out: inhibition of production of IL-1β, IC50
Description: The IL-1β activity of select compounds of the invention was determined by the following in vitro assay. Plastic-adherent cells were prepared from PBMC. Briefly, PBMCs were added to the wells of a 96-well plate as above, incubated for 1 h at 37° C., and the adherent cells prepared by gently resuspending the non-adherent cells with a pipettor, removing and discarding them and gently washing the wells 3 times with 200 μL culture medium. Additional culture medium (180 μL) was added to the wells after the final wash. Compound addition, LPS stimulation, incubation and supernate harvest were as for TNF-α. Supernates were assayed for interleukin-1β using a commercial ELISA (Genzyme).

[5] = test system: TNF-α; experiment: in vivo LPS induced TNF-α production, rats; parameters: species or system rats (Lewis males); settings: 25 mg/kg, oral, LPS 1 mg/kg i.p.
Description: as §1

T1 sequence (Q16539 whole entry): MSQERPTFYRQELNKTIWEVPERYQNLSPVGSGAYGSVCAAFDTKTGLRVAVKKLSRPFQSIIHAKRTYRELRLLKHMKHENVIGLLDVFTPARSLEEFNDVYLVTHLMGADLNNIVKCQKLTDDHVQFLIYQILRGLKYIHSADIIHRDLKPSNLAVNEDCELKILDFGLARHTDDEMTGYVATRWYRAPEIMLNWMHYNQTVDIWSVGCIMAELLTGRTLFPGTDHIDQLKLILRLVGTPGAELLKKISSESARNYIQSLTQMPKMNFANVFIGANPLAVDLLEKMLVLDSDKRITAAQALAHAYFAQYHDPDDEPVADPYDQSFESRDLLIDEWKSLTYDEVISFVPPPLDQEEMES

Compound `CN(C)CCC#Cc1nc(-c2ccc(F)cc2)c(-c2ccncc2)n1CCCc1ccccc1` [compound 17] has an IC50 [1] of 3 nM.

`Fc1ccc(-c2nc(C#CCCCl)n(CCCc3ccccc3)c2-c2ccncc2)cc1` [compound 16] was tested, and the IC50 [1] was 6 nM.

`OCC#Cc1nc(-c2ccc(F)cc2)c(-c2ccncc2)n1CCCc1ccccc1` [compound 47] gave an IC50 [1] of 7.2 nM.

`Fc1ccc(-c2nc(C#CCCCCl)n(CCCc3ccccc3)c2-c2ccncc2)cc1` [compound 14] showed an IC50 [1] of 4 nM.

For `O=C1c2ccccc2C(=O)N1CCCn1c(C#CCCO)nc(-c2ccc(F)cc2)c1-c1ccncc1` [compound 37], the IC50 [1] was 160 nM.

`O=C1c2ccccc2C(=O)N1CCCC#Cc1nc(-c2ccncc2)c(-c2ccc(F)cc2)[nH]1` [compound 29] gave an IC50 [1] of 200 nM.

In the case of `OCCCCC#Cc1nc(-c2ccc(F)cc2)c(-c2ccncc2)n1CCCc1ccccc1` [compound 43], the p-38 % inhibition ([2]; @ 20 μm) is reported as 98% @ 20 μm, the IC50 [1] is reported as 5.2 nM and the “% Inhibition TNF-α Mice” value [3] is reported as 53%.

`CCCC#Cc1nc(-c2ccc(F)cc2)c(-c2ccncc2)n1CCCc1ccccc1` [compound 34] was tested, and the IC50 [1] was 10 nM and the “% Inhibition TNF-α Mice” value [3] was 53%.

For `OCCC#Cc1nc(-c2ccc(F)cc2)c(-c2ccncc2)n1CCCc1ccccc1` [Cpd. 4], the IC50 [4] was 7 nM, the IC50 [2] was 650 nM and the “% Inhibition TNF-α Rats” value [5] was 91%. For the same compound, the IC50 [1] was 3 nM and the “% Inhibition TNF-α Mice” value [3] was 49.6%.

For `C#Cc1nc(-c2ccc(F)cc2)c(-c2ccncc2)[nH]1` [compound 30], the IC50 [1] was 150 nM.

With `COCCC#Cc1nc(-c2ccc(F)cc2)c(-c2ccncc2)n1CCCc1ccccc1` [compound 49] the IC50 [1] was 3 nM.

`Fc1ccc(-c2[nH]c(/C=C/Cl)nc2-c2ccncc2)cc1` [compound 8] showed an IC50 [2] of 1500 nM.

`CCCC#Cc1nc(-c2ccncc2)c(-c2ccc(F)cc2)[nH]1` [compound 28] was tested, and the IC50 [1] was 80 nM and the “% Inhibition TNF-α Mice” value [3] was 88%.

For `CCCC#Cc1nc(-c2ccncc2)c(-c2ccc(F)cc2)n1COCC[Si](C)(C)C` [compound 26], the IC50 [1] was greater than 2000 nM and the “% Inhibition TNF-α Mice” value [3] was 0%.

`CC(=O)OCCC#Cc1nc(-c2ccc(F)cc2)c(-c2ccncc2)n1CCCc1ccccc1` [compound 52] was tested, and the IC50 [1] was 2.6 nM.

`C[Si](C)(C)CCOCn1c(C=C(Br)Br)nc(-c2ccc(F)cc2)c1-c1ccncc1` [compound 18] gave an IC50 [1] of 1500 nM.

Work on `O=C1c2ccccc2C(=O)N1CCCC#Cc1nc(-c2ccc(F)cc2)c(-c2ccncc2)[nH]1` [compound 22] yielded an IC50 [1] of 700 nM.

`O=[N+]([O-])c1ccc(CON=Cc2nc(-c3ccc(F)cc3)c(-c3ccncc3)[nH]2)cc1` [compound 33] showed an IC50 [1] of 150 nM.

In the case of `OCCCCC#Cc1nc(-c2ccc(F)cc2)c(-c2ccncc2)[nH]1` [compound 24], the IC50 [1] is reported as 100 nM and the “% Inhibition TNF-α Mice” value [3] is reported as 73%.

Compound `O/N=C/c1nc(-c2ccncc2)c(-c2ccc(F)cc2)[nH]1` [compound 13] has an IC50 [1] of 45 nM.

`OCCCC#Cc1nc(-c2ccc(F)cc2)c(-c2ccncc2)n1CCCc1ccccc1` [compound 35] was tested, and the p-38 % inhibition ([2]; @ 20 μm) was 99% @ 20 μm, the IC50 [1] was 8 nM and the “% Inhibition TNF-α Mice” value [3] was 68%.

With `Fc1ccc(-c2nc(C#CCCCc3ccccc3)n(CCCc3ccccc3)c2-c2ccncc2)cc1` [compound 38] the IC50 [1] was 40 nM.

Compound `C=CC#Cc1nc(-c2ccc(F)cc2)c(-c2ccncc2)n1CCCc1ccccc1` [compound 51] has an IC50 [1] of 5.5 nM.

`C[Si](C)(C)CCOCn1c(C#CCCCN2C(=O)CCC2=O)nc(-c2ccc(F)cc2)c1-c1ccncc1` [compound 45] was tested, and the IC50 [1] was 650 nM.

With `C[Si](C)(C)CCOCn1c(C=C(Br)Br)nc(-c2ccncc2)c1-c1ccc(F)cc1` [compound 10] the p-38 % inhibition ([2]; @ 5 μm) was 16% @ 5 μm.

In the case of `Fc1ccc(-c2nc(C=NOCc3ccccc3)[nH]c2-c2ccncc2)cc1` [compound 32], the IC50 [1] is reported as 80 nM.

Compound `O=C(OCCC#Cc1nc(-c2ccc(F)cc2)c(-c2ccncc2)n1CCCc1ccccc1)c1ccccc1` [compound 50] has an IC50 [1] of 2 nM.

For `N#CCCCC#Cc1nc(-c2ccc(F)cc2)c(-c2ccncc2)n1CCCc1ccccc1` [compound 36], the IC50 [4] was 13 nM, the IC50 [2] was 1500 nM and the IC50 [1] was 9 nM. The “% Inhibition TNF-α Mice” value [3] was 69.3%.

`C[Si](C)(C)CCOCn1c(C#CCCO)nc(-c2ccncc2)c1-c1ccc(F)cc1` [compound 20] gave an IC50 [1] greater than 10000 nM.

`CCCCSCCCC#Cc1nc(-c2ccc(F)cc2)c(-c2ccncc2)n1CCCc1ccccc1` [compound 39] was tested, and the IC50 [1] was 200 nM.

Compound `Fc1ccc(-c2nc(C=C(Br)Br)[nH]c2-c2ccncc2)cc1` [compound 44] has a p-38 % inhibition ([2]; @ 20 μm) of 93% @ 20 μm and an IC50 [1] of 200 nM.

`N#CC=Cc1nc(-c2ccc(F)cc2)c(-c2ccncc2)[nH]1` [compound 46] gave an IC50 [1] of 250 nM.

Work on `Fc1ccc(-c2nc(C#CBr)[nH]c2-c2ccncc2)cc1` [compound 31] yielded an IC50 [1] of 250 nM.

For `CCCCS(=O)(=O)CCCC#Cc1nc(-c2ccc(F)cc2)c(-c2ccncc2)n1CCCc1ccccc1` [compound 40], the IC50 [1] was 6.5 nM.

`O=C(Nc1ccccc1)OCCC#Cc1nc(-c2ccc(F)cc2)c(-c2ccncc2)n1CCCc1ccccc1` [compound 15] gave an IC50 [1] of 38 nM.

`OCCC#Cc1nc(-c2ccc(F)cc2)c(-c2ccncc2)[nH]1` [compound 21] gave an IC50 [1] of 80 nM.

With `OCCCC#Cc1nc(-c2ccc(F)cc2)c(-c2ccncc2)[nH]1` [compound 19] the IC50 [1] was 85 nM and the “% Inhibition TNF-α Mice” value [3] was 29%.
